Reference: patent publication US20260167623A1 (NIKANG THERAPEUTICS, INC., priority 2022, published 2026)

Target: T1, CDK2 (Homo sapiens, UniProt P24941)
T1 construct: High-Throughput Measurement of Cellular Endogenous CDK2; endogenous in cells; host or cells: OVCAR3
Assay: Inhibition of CDK2: phospho-Rb (S807/811) HTRF measurement in OVCAR3 cells, 24 h
Type: cell-based
Settings: 24 h compound treatment, read-out: pRB_OVCAR3_24h
In short: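 OVCAR3 cells, seeded overnight, were exposed to compounds at 0.3 to 10,000 nM for 24 h, then lysed. Rb S807/811 phosphorylation read by HTRF (665/620 nm ratio) after 4 h detection at room temperature; data normalized to DMSO and IC50 from four-parameter logistic fit.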

Row | SMILES | IC50 [nM]
1 | Cn1nc(N2CCC(=O)NC2=O)c2ccc(C3CCN(CC4CCN(c5ccc(F)c(S(=O)(=O)N6CCC(Nc7ncc(Cl)cn7)CC6)c5)CC4)CC3)cc21 [Example 189, 1-(6-(1-((1-(3-((4-((5-chloropyrimidin-2-yl)amino)piperidin-1-yl)sulfonyl)-4-fluorophenyl)piperidin-4-yl)methyl)piperidin-4-yl)-1-methyl-1H-indazol-3-yl)dihydropyrimidine-2,4(1H,3H)-dione] | > 2500
2 | Cn1nc(N2CCC(=O)NC2=O)c2ccc(N3CCC(CN4CC5CCC(C4)N5c4cccc(S(=O)(=O)N5CCC(Nc6ncc(Cl)cn6)CC5)c4)CC3)cc21 [Example 191, 1-(6-(4-((8-(3-((4-((5-chloropyrimidin-2-yl)amino)piperidin-1-yl)sulfonyl)phenyl)-3,8-diazabicyclo[3.2.1]octan-3-yl)methyl)piperidin-1-yl)-1-methyl-1H-indazol-3-yl)dihydropyrimidine-2,4(1H,3H)-dione] | > 2500
3 | Cn1nc(N2CCC(=O)NC2=O)c2ccc(C3CCN(CC4CCN(c5cccc(S(=O)(=O)N6CCC(Nc7ncc(F)cn7)CC6)c5)CC4)CC3)cc21 [Example 193, 1-(6-(1-((1-(3-((4-((5-fluoropyrimidin-2-yl)amino)piperidin-1-yl)sulfonyl)phenyl)piperidin-4-yl)methyl)piperidin-4-yl)-1-methyl-1H-indazol-3-yl)dihydropyrimidine-2,4(1H,3H)-dione] | 500 to 2500
4 | O=C1CCN(c2cncc3c(C4CCN(CC5CCN(c6cccc(S(=O)(=O)N7CCC(Nc8ncc(Cl)cn8)CC7)c6)CC5)CC4)cccc23)C(=O)N1 [Example 194, 1-(8-(1-((1-(3-((4-((5-chloropyrimidin-2-yl)amino)piperidin-1-yl)sulfonyl)phenyl)piperidin-4-yl)methyl)piperidin-4-yl)isoquinolin-4-yl)dihydropyrimidine-2,4(1H,3H)-dione] | 100 to 500
5 | Cn1nc(N2CCC(=O)NC2=O)c2ccc(C3CCN(CC4CCN(c5cccc(S(=O)(=O)N6CCC(Nc7ncc(C(F)F)cn7)CC6)c5)CC4)CC3)cc21 [Example 195, 1-(6-(1-((1-(3-((4-((5-(difluoromethyl)pyrimidin-2-yl)amino)piperidin-1-yl)sulfonyl)phenyl)piperidin-4-yl)methyl)piperidin-4-yl)-1-methyl-1H-indazol-3-yl)dihydropyrimidine-2,4(1H,3H)-dione] | 500 to 2500
6 | Cn1c(=O)n(C2CCC(=O)NC2=O)c2cccc(C3CCN(Cc4cc(S(=O)(=O)N5CCC(Nc6ncc(OC(F)F)cn6)CC5)ccc4C#N)CC3)c21 (stereo not shown) [Example 196, 4-((4-((5-(difluoromethoxy)pyrimidin-2-yl)amino)piperidin-1-yl)sulfonyl)-2-((4-(1-(2,6-dioxopiperidin-3-yl)-3-methyl-2-oxo-2,3-dihydro-1H-benzo[d]imidazol-4-yl)piperidin-1-yl)methyl)benzonitrile] | 100 to 500
7 | N#Cc1ccc(S(=O)(=O)N2CCC(Nc3ncc(Cl)cn3)CC2)cc1N1CCC(CN2CCN(c3ccc4c(c3)CN(C3CCC(=O)NC3=O)C4=O)CC2)CC1 (stereo not shown) [Example 200, 4-((4-((5-chloropyrimidin-2-yl)amino)piperidin-1-yl)sulfonyl)-2-(4-((4-(2-(2,6-dioxopiperidin-3-yl)-1-oxoisoindolin-5-yl)piperazin-1-yl)methyl)piperidin-1-yl)benzonitrile] | 100 to 500
8 | CC1(C)C(=O)N(C2CCC(=O)NC2=O)c2cccc(C3CCN(CC4CCN(c5cc(S(=O)(=O)N6CCC(Nc7ncc(Cl)cn7)CC6)ccc5C#N)CC4)CC3)c21 (stereo not shown) [Example 207, 4-((4-((5-chloropyrimidin-2-yl)amino)piperidin-1-yl)sulfonyl)-2-(4-((4-(1-(2,6-dioxopiperidin-3-yl)-3,3-dimethyl-2-oxoindolin-4-yl)piperidin-1-yl)methyl)piperidin-1-yl)benzonitrile] | 100 to 500
9 | Cn1nc(-n2ccc(=O)[nH]c2=O)c2ccc(C3CCN(CC4CCN(c5cccc(S(=O)(=O)N6CCC(Nc7ncc(Cl)cn7)CC6)c5)CC4)CC3)cc21 [Example 210, 1-(6-(1-((1-(3-((4-((5-chloropyrimidin-2-yl)amino)piperidin-1-yl)sulfonyl)phenyl)piperidin-4-yl)methyl)piperidin-4-yl)-1-methyl-1H-indazol-3-yl)pyrimidine-2,4(1H,3H)-dione] | 100 to 500
10 | Cn1nc(N2CCC(=O)NC2=O)c2ncc(C3CCN(CC4CCN(c5cccc(S(=O)(=O)N6CCC(Nc7ncc(C(F)(F)F)cn7)CC6)c5)CC4)CC3)cc21 [Example 212, 1-(1-methyl-6-(1-((1-(3-((4-((5-(trifluoromethyl)pyrimidin-2-yl)amino)piperidin-1-yl)sulfonyl)phenyl)piperidin-4-yl)methyl)piperidin-4-yl)-1H-pyrazolo[4,3-b]pyridin-3-yl)dihydropyrimidine-2,4(1H,3H)-dione] | 500 to 2500
11 | O=C1CCN(c2cnc3c(C4CCN(CC5CCN(c6cccc(S(=O)(=O)N7CCC(Nc8ncc(Cl)cn8)CC7)c6)CC5)CC4)cccn23)C(=O)N1 [Example 213, 1-(8-(1-((1-(3-((4-((5-chloropyrimidin-2-yl)amino)piperidin-1-yl)sulfonyl)phenyl)piperidin-4-yl)methyl)piperidin-4-yl)imidazo[1,2-a]pyridin-3-yl)dihydropyrimidine-2,4(1H,3H)-dione] | 100 to 500
12 | Cn1nc(N2CCC(=O)NC2=O)c2ncc(C3CCN(CC4CCN(c5cccc(S(=O)(=O)N6CCC(Nc7ncc(Cl)cn7)CC6)c5)CC4)CC3)cc21 [Example 215] | 500 to 2500
13 | CO[C@@H]1CN(S(=O)(=O)c2cccc(N3CCC(CN4CCC(c5ccc6c(N7CCC(=O)NC7=O)nn(C)c6c5)CC4)CC3)c2)CC[C@@H]1Nc1ncc(Cl)cn1 [Example 218, 1-(6-(1-((1-(3-(((3R,4S)-4-((5-chloropyrimidin-2-yl)amino)-3-methoxypiperidin-1-yl)sulfonyl)phenyl)piperidin-4-yl)methyl)piperidin-4-yl)-1-methyl-1H-indazol-3-yl)dihydropyrimidine-2,4(1H,3H)-dione] | > 2500
14 | O=C1CCC(NC(=O)c2ccc(C3CCN(CC4CCN(c5cccc(S(=O)(=O)N6CCC(Nc7ncc(C(F)(F)F)cn7)CC6)c5)CC4)CC3)cn2)C(=O)N1 (stereo not shown) [Example 225, N-(2,6-dioxopiperidin-3-yl)-5-(1-((1-(3-((4-((5-(trifluoromethyl)pyrimidin-2-yl)amino)piperidin-1-yl)sulfonyl)phenyl)piperidin-4-yl)methyl)piperidin-4-yl)picolinamide] | 100 to 500
15 | Cn1nc(N2CCC(=O)NC2=O)c2ccc(C3CCN(CC4CCN(c5cccc(S(=O)(=O)N6[C@@H]7CC[C@H]6CC(Nc6ncc(Cl)cn6)C7)c5)CC4)CC3)cc21 (stereo partly drawn) [Example 227, 1-(6-(1-((1-(3-(((1R,5S)-3-((5-chloropyrimidin-2-yl)amino)-8-azabicyclo[3.2.1]octan-8-yl)sulfonyl)phenyl)piperidin-4-yl)methyl)piperidin-4-yl)-1-methyl-1H-indazol-3-yl)dihydropyrimidine-2,4(1H,3H)-dione] | 500 to 2500
16 | Cn1nc(N2CCC(=O)NC2=O)c2cnc(C3CCN(CC4CCN(c5cccc(S(=O)(=O)N6CCC(Nc7ncc(Cl)cn7)CC6)c5)CC4)CC3)cc21 [Example 228, 1-(6-(1-((1-(3-((4-((5-chloropyrimidin-2-yl)amino)piperidin-1-yl)sulfonyl)phenyl)piperidin-4-yl)methyl)piperidin-4-yl)-1-methyl-1H-pyrazolo[4,3-c]pyridin-3-yl)dihydropyrimidine-2,4(1H,3H)-dione] | 100 to 500
17 | Cn1nc(N2CCC(=O)NC2=O)c2ccc(C#CCN3CCN(c4cccc(S(=O)(=O)N5CCC(Nc6ncc(C(F)(F)F)cn6)CC5)c4)CC3)cc21 [Example 230, 1-(1-methyl-6-(3-(4-(3-((4-((5-(trifluoromethyl)pyrimidin-2-yl)amino)piperidin-1-yl)sulfonyl)phenyl)piperazin-1-yl)prop-1-yn-1-yl)-1H-indazol-3-yl)dihydropyrimidine-2,4(1H,3H)-dione] | 500 to 2500
18 | Cn1nc(N2CCC(=O)NC2=O)c2ccc(C#CCN3CCN(c4cccc(S(=O)(=O)N5CCC(Nc6ncc(Cl)cn6)CC5)c4)CC3)cc21 [Example 231, 1-(6-(3-(4-(3-((4-((5-chloropyrimidin-2-yl)amino)piperidin-1-yl)sulfonyl)phenyl)piperazin-1-yl)prop-1-yn-1-yl)-1-methyl-1H-indazol-3-yl)dihydropyrimidine-2,4(1H,3H)-dione] | 500 to 2500
19 | Cn1nc(N2CCC(=O)NC2=O)c2ccc(C3CCN(Cc4ccc(C#Cc5cccc(S(=O)(=O)N6CCC(Nc7ncc(C(F)(F)F)cn7)CC6)c5)cc4)CC3)cc21 [Example 232, 1-(1-methyl-6-(1-(4-((3-((4-((5-(trifluoromethyl)pyrimidin-2-yl)amino)piperidin-1-yl)sulfonyl)phenyl)ethynyl)benzyl)piperidin-4-yl)-1H-indazol-3-yl)dihydropyrimidine-2,4(1H,3H)-dione] | 100 to 500
20 | Cn1nc(N2CCC(=O)NC2=O)c2ccc(C3CCN(Cc4cccc(C#Cc5cccc(S(=O)(=O)N6CCC(Nc7ncc(C(F)(F)F)cn7)CC6)c5)c4)CC3)cc21 [Example 233] | 100 to 500
21 | Cn1nc(N2CCC(=O)NC2=O)c2ccc(CCCN3CCN(c4cccc(S(=O)(=O)N5CCC(Nc6ncc(C(F)(F)F)cn6)CC5)c4)CC3)cc21 [Example 235, 1-(1-methyl-6-(3-(4-(3-((4-((5-(trifluoromethyl)pyrimidin-2-yl)amino)piperidin-1-yl)sulfonyl)phenyl)piperazin-1-yl)propyl)-1H-indazol-3-yl)dihydropyrimidine-2,4(1H,3H)-dione] | 100 to 500
22 | O=C1CCC(NC(=O)c2ccc(C3CCN(CC4CCN(c5cccc(S(=O)(=O)N6CCC(Nc7ncc(C(F)(F)F)cn7)CC6)c5)CC4)CC3)cc2F)C(=O)N1 (stereo not shown) [Example 236, N-(2,6-dioxopiperidin-3-yl)-2-fluoro-4-(1-((1-(3-((4-((5-(trifluoromethyl)pyrimidin-2-yl)amino)piperidin-1-yl)sulfonyl)phenyl)piperidin-4-yl)methyl)piperidin-4-yl)benzamide] | 100 to 500
